Data reported in PMC12207590, “Substrate Specificity of the Organic Cation Transporters MATE1 and MATE2K and Functional Overlap with OCT1 and OCT2” (Journal of Medicinal Chemistry, 2025).
Where two headings read alike, the source gives them in different places.

Assays:
[1] = molecular target: T1, MATE1 (Homo sapiens, UniProt Q96FL8); assay: Uptake ratio in MATE1-overexpressing HEK293 cells vs empty vector (2.5 μM, 1 min, HPLC-MS/MS); format: cell-based; settings: for MATE1 (uptake ratio): mean ratio of uptake in MATE1-overexpressing HEK293 cells vs empty vector; for MATE1 ratio in this study: Table S1
T1 sequence (Q96FL8 1-570): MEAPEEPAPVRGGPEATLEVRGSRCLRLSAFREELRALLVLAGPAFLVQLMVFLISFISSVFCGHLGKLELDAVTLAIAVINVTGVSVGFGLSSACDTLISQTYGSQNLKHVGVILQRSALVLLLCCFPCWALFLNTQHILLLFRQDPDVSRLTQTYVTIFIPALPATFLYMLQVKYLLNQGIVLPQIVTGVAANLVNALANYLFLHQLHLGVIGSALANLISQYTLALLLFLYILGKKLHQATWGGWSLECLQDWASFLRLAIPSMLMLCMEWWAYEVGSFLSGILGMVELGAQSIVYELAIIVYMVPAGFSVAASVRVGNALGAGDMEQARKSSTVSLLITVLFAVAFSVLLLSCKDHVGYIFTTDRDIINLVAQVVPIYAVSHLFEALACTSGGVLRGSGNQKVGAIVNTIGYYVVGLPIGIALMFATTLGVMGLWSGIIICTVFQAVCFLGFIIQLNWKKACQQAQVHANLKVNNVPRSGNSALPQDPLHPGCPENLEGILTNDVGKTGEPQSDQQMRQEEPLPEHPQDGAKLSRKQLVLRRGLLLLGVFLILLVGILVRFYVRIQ

[2] = molecular target: MATE2K (Homo sapiens, UniProt Q86VL8); assay: Uptake ratio in MATE2K-overexpressing HEK293 cells vs empty vector (2.5 μM, 1 min, HPLC-MS/MS); format: cell-based; settings: for MATE2 (uptake ratio): mean ratio of uptake in MATE2K-overexpressing HEK293 cells vs empty vector; for MATE2K ratio in this study: Table S1
[3] = fold uptake over empty vector, 2.5 μM, 1 min

Chain of MATE2K (Q86VL8 1-566 isoform Q86VL8-3): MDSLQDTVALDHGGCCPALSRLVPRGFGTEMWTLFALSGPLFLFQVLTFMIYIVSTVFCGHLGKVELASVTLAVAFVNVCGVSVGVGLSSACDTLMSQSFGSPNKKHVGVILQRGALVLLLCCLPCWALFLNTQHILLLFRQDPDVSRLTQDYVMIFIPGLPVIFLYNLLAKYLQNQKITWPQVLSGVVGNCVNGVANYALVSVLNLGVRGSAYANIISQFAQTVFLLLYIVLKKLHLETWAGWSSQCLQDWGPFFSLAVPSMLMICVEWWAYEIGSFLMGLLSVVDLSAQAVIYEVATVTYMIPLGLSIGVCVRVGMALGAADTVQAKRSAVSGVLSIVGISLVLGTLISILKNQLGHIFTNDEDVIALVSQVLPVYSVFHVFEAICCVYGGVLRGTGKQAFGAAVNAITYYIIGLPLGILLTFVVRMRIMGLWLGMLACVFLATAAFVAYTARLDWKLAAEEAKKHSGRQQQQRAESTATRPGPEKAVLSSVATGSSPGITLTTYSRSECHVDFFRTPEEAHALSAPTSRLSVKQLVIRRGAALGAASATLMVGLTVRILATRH

SMILES | MATE1 ratio [1, 3] | MATE2K ratio [2, 3] | other results
CC[C@H]1OC(=O)[C@H](C)[C@@H](O[C@H]2C[C@@](C)(OC)[C@@H](O)[C@H](C)O2)[C@H](C)[C@@H](O[C@@H]2O[C@H](C)C[C@H](N(C)C)[C@H]2O)[C@](C)(OC)C[C@@H](C)C(=O)[C@H](C)[C@@H](O)[C@]1(C)O [Clarithromycin] | 1.21 | 1.31 | MATE1 (uptake ratio) ([1]; 2.5 μM, 1 min): 1.21; MATE2 (uptake ratio) ([2]; 2.5 μM, 1 min): 1.31
C[N+]12CCC(CC1)C(OC(=O)C(O)(c1ccccc1)c1ccccc1)C2 (centres unmarked) [Clidinium] | 16.18 | 1.79 | MATE1 (uptake ratio) ([1]; 2.5 μM, 1 min): 16.18; MATE2 (uptake ratio) ([2]; 2.5 μM, 1 min): 1.79
Clc1cccc(Cl)c1N=C1NCCN1 [Clonidine] | 1.11 | 1.17 | MATE1 (uptake ratio) ([1]; 2.5 μM, 1 min): 1.11; MATE2 (uptake ratio) ([2]; 2.5 μM, 1 min): 1.17
CC(C)(C)NCC(O)c1ccc(O)c(O)c1 (centres unmarked) [Colterol] | 10.79 | 5.80 | MATE1 (uptake ratio) ([1]; 2.5 μM, 1 min): 10.79; MATE2 (uptake ratio) ([2]; 2.5 μM, 1 min): 5.8
Cc1oc2nc3c(c(NC(=O)CN4CCCC4=O)c2c1C)CCCC3 [Coluracetam] | 0.97 | 0.97 | –
CN1C(=O)CC[C@H]1c1cccnc1 [Cotinine] | 1.11 | 1.20 | –
CN(CC(=O)O)C(=N)N [Creatine] | – | – | MATE1 ratio [1]: 1.01; MATE2K ratio [2]: 1.07
CN1CC(=O)NC1=N [Creatinine] | 0.83 | 1.07 | MATE1 ratio in this study ([1]; 2.5 μM, 1 min): 0.83; MATE2K ratio in this study ([2]; 2.5 μM, 1 min): 1.07
CN(C)CCOC(=O)C(c1ccccc1)C1(O)CCCC1 (centres unmarked) [Cyclopentolate] | 1.09 | 1.34 | –
O=c1cccc2n1C[C@@H]1CNC[C@H]2C1 [Cytisine] | – | – | MATE1 ratio [1]: 1.95; MATE2K ratio [2]: 1.17
Nc1ccc(S(=O)(=O)c2ccc(N)cc2)cc1 [Dapsone] | 0.89 | 0.95 | –
N=C(N)N1CCc2ccccc2C1 [Debrisoquine] | 8.16 | 5.05 | MATE1 ratio in this study ([1]; 2.5 μM, 1 min): 8.16; MATE2K ratio in this study ([2]; 2.5 μM, 1 min): 5.05
Nc1ncn([C@H]2C[C@H](O)[C@@H](CO)O2)c(=O)n1 [Decitabine] | 1.13 | 1.04 | –
COc1cc2c(cc1OC)-c1c(C)c3ccc(OC)c(OC)c3c[n+]1CC2 [Dehydrocorydaline] | – | – | MATE1 ratio [1]: 9.25; MATE2K ratio [2]: 2.85
CC(C)Nc1cccnc1N1CCN(C(=O)c2cc3cc(NS(C)(=O)=O)ccc3[nH]2)CC1 [Delavirdine] | 1.19 | 1.09 | –
COc1ccc(CCNC[C@H](O)c2ccc(O)cc2)cc1OC [Denopamine (R), Denopamine] | 2.32 | 1.69 | –
CNCCc1ccc(O)c(O)c1 [Deoxyepinephrine] | 34.31 | 3.40 | –
CC(C1=C(CCN(C)C)Cc2ccccc21)c1ccccn1 (centres unmarked) [Dimethindene] | 0.99 | 1.02 | –
C[N+]1(C)CCN(c2ccccc2)CC1 [Dimethylphenylpiperazinium] | – | – | MATE1 ratio [1]: 29.06; MATE2K ratio [2]: 4.30
OCCN(CCO)c1nc(N2CCCCC2)c2nc(N(CCO)CCO)nc(N3CCCCC3)c2n1 [Dipyridamole] | 1.11 | 1.13 | –

SMILES | MATE1 ratio [1, 3] | MATE2K ratio [2, 3] | other results
CC(C)N(CCC(C(N)=O)(c1ccccc1)c1ccccn1)C(C)C (centres unmarked) [Disopyramide] | 1.26 | 1.21 | –
CN(C)CCC=C1c2ccccc2COc2ccccc21 [Doxepin (E), Doxepin] | 1.26 | 1.08 | –
CN(C)CCC=C1c2ccccc2COc2ccccc21 [Doxepin (Z), Doxepin] | 1.28 | 1.09 | –
CCC1(C2=NCCN2)Cc2ccccc2O1 (centres unmarked) [Efaroxan] | 1.38 | 1.72 | –
CC/C(=C(\c1ccc(O)cc1)c1ccc(OCCNC)cc1)c1ccccc1 [Endoxifen] | 1.30 | 1.21 | –
COc1cc2c(cc1OC)-c1cc3ccc4c(c3c[n+]1CC2)OCO4 [Epiberberine] | – | – | MATE1 ratio [1]: 12.54; MATE2K ratio [2]: 5.89
CNC[C@H](O)c1ccc(O)c(O)c1 [Epinephrine (-), Epinephrine] | 37.78 | 3.98 | –
COC(=O)CCc1ccc(OCC(O)CNC(C)C)cc1 (centres unmarked) [Esmolol] | 1.42 | 1.23 | –
C[C@]12CC[C@@H]3c4ccc(OS(=O)(=O)O)cc4CC[C@H]3[C@@H]1CCC2=O [Estrone-3-sulfate] | 4.80 | 2.08 | MATE1 ratio in this study ([1]; 2.5 μM, 1 min): 4.80; substrate of MATE1 ([1]; organic anions tested): substrates of MATE1; MATE2K ratio in this study ([2]; 2.5 μM, 1 min): 2.08
CCNCC(O)c1cccc(O)c1 (centres unmarked) [Etilefrine] | 9.81 | 2.04 | –
O=S(=O)(c1cccc2cnccc12)N1CCCNCC1 [Fasudil] | 1.50 | 1.80 | –
Cc1cnc(Nc2ccc(OCCN3CCCC3)cc2)nc1Nc1cccc(S(=O)(=O)NC(C)(C)C)c1 [Fedratinib] | 1.16 | 0.87 | –
NC(=O)OCC(COC(N)=O)c1ccccc1 [Felbamate] | 0.97 | 0.94 | –
Oc1ccc(C2CNCCc3c2cc(O)c(O)c3Cl)cc1 (centres unmarked) [Fenoldopam] | 8.11 | 4.17 | –
C[N+]1(CCC(C(N)=O)(c2ccccc2)c2ccccc2)CCCCC1 [Fenpiverinium] | 15.19 | 1.35 | –
O=C(Nc1nc2cccc(-c3ccc(CN4CCS(=O)(=O)CC4)cc3)n2n1)C1CC1 [Filgotinib] | 0.89 | 1.01 | –
CCCCCCCCc1ccc(CCC(N)(CO)CO)cc1 [Fingolimod] | 1.12 | 1.14 | –
O=C(NCC1CCCCN1)c1cc(OCC(F)(F)F)ccc1OCC(F)(F)F (centres unmarked) [Flecainide] | 1.13 | 1.19 | –
OCCN1CCN(CCCN2c3ccccc3Sc3ccc(C(F)(F)F)cc32)CC1 [Fluphenazine] | 1.26 | 1.13 | –
Nc1nc(=O)c2nc(CNc3ccc(C(=O)N[C@@H](CCC(=O)O)C(=O)O)cc3)cnc2[nH]1 [Folic acid] | 1.00 | 1.13 | –

SMILES | MATE1 ratio [1, 3] | MATE2K ratio [2, 3] | other results
CCOC(=O)c1ccc(OC(=O)CCCCCNC(=N)N)cc1 [Gabexate] | 5.78 | 4.18 | –
NCCCC(=O)O [Gamma-aminobutyric acid] | 0.90 | 0.87 | –
COc1cc2ncnc(Nc3ccc(F)c(Cl)c3)c2cc1OCCCN1CCOCC1 [Gefitinib] | 0.89 | 0.88 | –
Nc1ccn([C@@H]2O[C@H](CO)[C@@H](O)C2(F)F)c(=O)n1 [Gemcitabine] | 1.29 | 1.08 | MATE1 ratio in this study ([1]; 2.5 μM, 1 min): 1.29; MATE2K ratio in this study ([2]; 2.5 μM, 1 min): 1.08
CN(C)c1ccc(C(=C2C=CC(=[N+](C)C)C=C2)c2ccc(N(C)C)cc2)cc1 [Gentian violet] | 1.40 | 1.05 | –
N[C@@H](CCC(=O)O)C(=O)O [Glutamic acid (D), Glutamic acid] | – | – | MATE1 ratio [1]: 1.17; MATE2K ratio [2]: 0.99
N=C(N)NC(=O)Cc1c(Cl)cccc1Cl [Guanfacine] | 1.60 | 1.37 | –
CNCC(O)c1ccccc1 (centres unmarked) [Halostachine] | 1.41 | 1.52 | –
COc1ccc2c3c([nH]c2c1)C(C)=NCC3 [Harmaline] | – | – | MATE1 ratio [1]: 1.19; MATE2K ratio [2]: 1.15
CCCCCCCN [Heptylamine] | – | – | MATE1 ratio [1]: 1.18; MATE2K ratio [2]: 1.60
CCCCCC(=O)OC(CC(=O)[O-])C[N+](C)(C)C (centres unmarked) [Hexanoylcarnitine] | 1.02 | 1.01 | –
Oc1ccc(CC2NCCc3cc(O)c(O)cc32)cc1 (centres unmarked) [Higenamine] | 14.55 | 11.27 | –
NCCc1c[nH]cn1 [Histamine] | 19.90 | 1.40 | –
NC(N)=NCCCC[C@H](N)C(=O)O [Homoarginine] | – | – | MATE1 ratio [1]: 0.97; MATE2K ratio [2]: 0.97
CN(C)CCc1ccc(O)cc1 [Hordenine] | – | – | MATE1 ratio [1]: 1.16; MATE2K ratio [2]: 1.20
CC(NC(C)(C)CO)C(=O)c1cccc(Cl)c1 (centres unmarked) [Hydroxybupropion] | – | – | MATE1 ratio [1]: 1.09; MATE2K ratio [2]: 1.51
O=P1(NCCCl)OCCCN1CCCl (centres unmarked) [Ifosfamide] | – | – | MATE1 ratio [1]: 1.24; MATE2K ratio [2]: 1.17
CCc1cc2c(cc1CC)CC(NC[C@H](O)c1ccc(O)c3[nH]c(=O)ccc13)C2 [Indacaterol] | 1.98 | 1.88 | –
CC(C)C(=O)O[C@H](CC(=O)[O-])C[N+](C)(C)C [Isobutyrylcarnitine] | 1.40 | 1.35 | –
CCC(NC(C)C)C(O)c1ccc(O)c(O)c1 (centres unmarked) [Isoetharine] | 5.65 | 1.85 | –
